# Experimental data reported in US20240197742A1, “Therapeutic Combinations of a CD19 Inhibitor and a BTK Inhibitor” (Acerta Pharma B.V., priority 2015, published 2024).
# Entries after “also recorded” stand apart in the source; their conditions may differ.
# How the values were obtained:
# CYP3A4 = CYP3A4 (Homo sapiens, UniProt P08684); assay: Loss of parent drug as catalyzed by CYPs; assay type: in vitro ADME; settings: in vitro
# Text: (§1) No unique human metabolite was identified. Preliminary evaluations of metabolism in the plasma, bile, and urine of rats, dogs, and monkeys indicated metabolic processes of oxidation, glutathione binding, and hydrolysis.
# [1] = In vitro metabolism in hepatocytes; assay type: in vitro ADME, and human; settings: ^4C-labeled Formula (2); mouse, rat, dog, rabbit, monkey, human hepatocytes
# Text: as §1
# [2] = Glutathione binding and depletion in vitro; assay type: in vitro ADME
# Text: as §1
# CYP enzymes = assay: Nonclinical CYP interaction studies; assay type: in vitro ADME
# Text: as §1
# BTK = molecular target: T1, BTK (Mus musculus, UniProt P35991); assay: Molecular probe assay of irreversible BTK occupancy in MDSCs; assay type: in vivo; settings: tumor bearing PDA mice, 15 mg/kg BID; Day 8 at 4 hours post dose (N=5)
# T1 construct: MDSCs were purified from tumor bearing PDA mice; from tissue; host or cells: granulocytic and monocytic MDSCs from tumor-bearing PDA mice dosed in vivo
# NK cells [3] = assay: Antibody-dependent NK cell-mediated IFN-γ release (ELISA); assay type: cell-based, human; settings: 1 μM; trastuzumab-coated (10 μg/mL) HER18, 4 hours
# Description: (§2) All in vitro experiments were performed in triplicate.
# Cytokine secretion was determined as follows. […] NK cells from healthy donors were enriched as described above and then added to the target cells and incubated for 4 hours at 37° C. Triplicate cultures were performed on NK cells from donors. After incubation, supernatants were harvested, centrifuged briefly, and then analyzed for interferon-γ using an enzyme-linked immunosorbent assay (ELISA) (R&D Systems, Minneapolis, MN, USA).
# NK cells [4] = assay: Antibody-dependent NK cell-mediated degranulation (CD107a); assay type: cell-based, human
# Description: as §2
# Lytic granule release was determined as follows. NK cells from healthy donors were enriched and cultured in the presence of target cells, monoclonal antibodies and test articles as described above. After 4 hours, the cultures were harvested and cells were pelleted, washed, and then stained for flow cytometry evaluation. Degranulation was evaluated via by flow cytometery by externalization of CD107a, a protein normally present on the inner leaflet of lytic granules, and gating on NK cells (CD3-CD16^+ lymphocytes). The percentage of CD107α positive NK cells was quantified by comparison with a negative control (isotype control, unstained cells/FMO). Control cultures (NK cells cultured without target cells, or NK, target cell co-cultures in the absence of appropriate monoclonal antibody) were also evaluated; all experiments were performed in triplicate.
# NK cells [5] = assay: Whole blood NK cell degranulation with obinutuzumab-opsonised MEC-1 cells; assay type: cell-based, human; settings: 1 hour pretreatment (10, 1, 0.1 μM), MEC-1 opsonised with obinutuzumab 1 μg/mL, 4 hours, n=3
# Description: Degranulation in whole blood was performed as follows. […] Exponentially growing cells were used. On the day of the experiment, 8 mL of blood was drawn from a normal volunteer into a test tube containing desirudin to obtain a final concentration of 50 μg/mL. A white blood cell (WBC) count of whole blood was performed. […] The ibrutinib control and two blinded BTK inhibitors were diluted in X-VIVO 15 serum-free hematopoietic cell medium (Lonza Group, Ltd.) to concentrations of 200 μM, 20 μM and 2 μM. 170 μL aliquots of unmanipulated whole blood were incubated with 10 μL BTK inhibitors or X-VIVO 15 medium for one hour into a plate. […] The samples were placed in a 5% CO2 incubator for 4 hours at 37° C.
# After 4 hours, the samples were mixed gently and 50 μL aliquots were removed from each well and placed in fluorescence-activated cell sorting (FACS) test tubes. A 20 μL aliquot of anti-CD56-APC antibody and anti-CD107a-PE antibody was added. The samples were incubated for 20 minutes at room temperature in the dark. An aliquot of 2 mL of FACS lysing solution (BD Biosceinces) was added. The samples were again incubated for 5 minutes, and then centrifuged at 2000 rpm for 5 minutes. Supernatant was discarded and the cell pellet was resuspended in 500 μL of PBS. The samples were analyzed on the flow cytometer for CD107a^+ NK cells (CD56^+).
# regulatory T cell (Treg) = assay: Treg development from enriched CD4+ T cells; assay type: cell-based; settings: anti-TCRβ plus anti-CD28, skewing cytokines, 4 days
# Description: Enriched CD4^+ T cells are plated on 24-well culture dishes that have been precoated 2 hr with 250 μL anti-TCRβ (0.5 μg/mL) plus anti-CD28 (5 μg/mL) at 37° C. in PBS. The cells are then supplemented with media containing BTK inhibitors along with the skewing cytokines as indicated in the following. The Th17 and Treg cultures are grown for 4 days before analysis. The cells are maintained for an additional 3 days with skewing cytokines (Th17; 20 ng/mL IL-6, 0.5 ng/mL TGF-β, 5 μg/mL IL-4, 5 μg/mL IFN-γ and Treg; 0.5 ng/mL TGF-β, 5 μg/mL IL-4, 5 μg/mL IFN-γ) and are supplemented with IL2 as a growth factor.
# CD8+ T cells [6] = assay: CD8+ T cell viability; assay type: cell-based; settings: anti-TCR and anti-CD28 coated wells, neutral conditions, 4 days
# Description: Total T cells were plated on anti-TCR and anti-CD28 coated wells in the presence of both BTK inhibitors. Neutral culture conditions were used that will not polarize T cells to a helper lineage. […] Statistical significance was calculated using the Mann Whitney T-test.
# CD8+ T cells [7] = assay: Cytotoxic T cell (CTL) assay; assay type: cell-based; settings: 500 nM, relative to vehicle
# Description: Without being bound by any theory, CD8^+ T cells have two primary effector functions: (1) produce large amounts of IFN-γ (which activates macrophages), and (2) cytolytic activity. […] The targets were B lymphoblasts from lipopolysaccharide (LPS) treated cultures. The assay was performed by incubating different ratios of effectors:targets for 4 hours.
# [8] = tested on: MDSC (monocytic) and NK cells; assay: Flow cytometry of peripheral blood cell subsets in CLL patients; assay type: in vivo, human; settings: patients with decreasing ALC %, doses including 100 mg BID, 200 mg QD, 400 mg QD
# Description: PBMCs were stained with monoclonal antibodies conjugated to fluorescent tags (flourochromes) to identify cell subsets via flow cytometry. Non-viable cells were excluded from the analysis using the dye 7-aminoactinomycin D (7-AAD). To produce the metric of percent change, the following steps were taken. First, each cell subset was defined by hierarchical flow cytometry gating. Then, the change in frequency (between day 1 and day 28) was calculated for each cell subset. MDSC subsets were measured as a % of all myeloid cells. T cell subsets were measured as a % of all CD3^+ cells, and NK cells were measured as a % of all live CD45^+ cells. […] A cycle is 28 days. […] This may include patients who had quickly resolving lymphocytosis and those with no initial lymphocytosis. […] This may include patients who had quickly resolving lymphocytosis and those having no initial lymphocytosis. The effects in FIG. 52 to FIG. 55 are observed in multiple cohorts, at doses including 100 mg BID, 200 mg QD, and 400 mg QD. In FIG. 56 and FIG. 57, the effects on NK cells and MDSC cells are compared to a number of other markers versus % change in ALC at C1D28 and C2D28. These other markers include CD4+ T cells, CD8+ T cells, CD4+/CD8+ T cell ratio, NK-T cells, PD-1+CD4+ T cells, and PD-1+CD8+ T cells. The effects on NK cells and MDSC cells are observed to be much more pronounced than on any of these other markers.
# CXCL12 and CCL2 = assay: Plasma chemokines in CLL patients; assay type: in vivo, human; settings: plasma of treated CLL patients
# human platelets = assay: Laser injury thrombus formation in VWF HA1 mice infused with human platelets; settings: 0.1 μM, 0.5 μM, or 1 μM
# Description: Injury to the vessel wall of arterioles ([…] diameter) was performed using a pulsed nitrogen dye laser (440 nm, Photonic Instruments) applied through a 20× water-immersion Olympus objective (LUMPlanF1, 0.5 numerical aperture (NA)) of a Zeiss Axiotech vario microscope. […] The extent of thrombus formation was assessed for 2 minutes after injury and the area (μm^2) of coverage determined (Image IQ, Andor Technology).
# The BTK inhibitor-treated human platelets were fluorescently labeled and infused continuously through a catheter inserted into the femoral artery.
# [9] = tested on: 80 known pharmacologic targets such as G-protein-coupled receptors, nuclear receptors, proteases, and ion channels; assay: Binding assays with 80 known pharmacologic targets; settings: screened at 10 μM
# EGFR = EGFR (Homo sapiens, UniProt P00533); assay: EGF receptor phosphorylation in A431 cells (phosphoflow); settings: 10 μM; A431 human epidermoid cancer cell line
# Chain of EGFR (P00533 25-1210): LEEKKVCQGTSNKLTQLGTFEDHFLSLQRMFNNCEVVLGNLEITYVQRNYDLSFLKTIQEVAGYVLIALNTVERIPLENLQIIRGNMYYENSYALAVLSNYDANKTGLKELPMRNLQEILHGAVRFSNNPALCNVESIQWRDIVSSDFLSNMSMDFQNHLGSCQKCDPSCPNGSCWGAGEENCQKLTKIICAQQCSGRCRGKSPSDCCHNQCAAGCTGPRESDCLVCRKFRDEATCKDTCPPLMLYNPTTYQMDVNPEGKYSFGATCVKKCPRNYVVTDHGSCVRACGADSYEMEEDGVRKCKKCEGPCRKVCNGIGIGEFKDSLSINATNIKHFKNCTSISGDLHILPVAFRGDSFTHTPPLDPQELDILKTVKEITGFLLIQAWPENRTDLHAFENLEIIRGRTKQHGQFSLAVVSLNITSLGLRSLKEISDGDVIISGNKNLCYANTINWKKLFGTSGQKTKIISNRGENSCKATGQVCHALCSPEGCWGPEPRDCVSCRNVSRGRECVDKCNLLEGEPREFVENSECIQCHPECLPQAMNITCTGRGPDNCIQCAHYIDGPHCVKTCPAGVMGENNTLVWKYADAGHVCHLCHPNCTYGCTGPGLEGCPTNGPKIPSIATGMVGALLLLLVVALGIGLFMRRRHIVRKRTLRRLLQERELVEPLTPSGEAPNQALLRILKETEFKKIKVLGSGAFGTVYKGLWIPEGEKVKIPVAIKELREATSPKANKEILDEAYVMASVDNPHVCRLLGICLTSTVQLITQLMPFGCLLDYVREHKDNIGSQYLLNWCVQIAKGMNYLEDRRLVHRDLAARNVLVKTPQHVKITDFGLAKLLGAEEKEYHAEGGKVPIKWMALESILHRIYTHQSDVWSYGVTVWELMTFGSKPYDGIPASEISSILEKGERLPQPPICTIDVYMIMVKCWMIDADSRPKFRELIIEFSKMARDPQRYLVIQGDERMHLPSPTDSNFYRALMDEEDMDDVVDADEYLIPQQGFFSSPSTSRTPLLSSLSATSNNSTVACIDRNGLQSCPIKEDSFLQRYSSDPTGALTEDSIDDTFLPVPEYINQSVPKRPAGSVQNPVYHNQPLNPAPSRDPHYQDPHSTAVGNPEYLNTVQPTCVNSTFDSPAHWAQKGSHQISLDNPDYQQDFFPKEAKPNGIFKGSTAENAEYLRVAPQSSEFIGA
# T1 sequence (P35991 whole entry): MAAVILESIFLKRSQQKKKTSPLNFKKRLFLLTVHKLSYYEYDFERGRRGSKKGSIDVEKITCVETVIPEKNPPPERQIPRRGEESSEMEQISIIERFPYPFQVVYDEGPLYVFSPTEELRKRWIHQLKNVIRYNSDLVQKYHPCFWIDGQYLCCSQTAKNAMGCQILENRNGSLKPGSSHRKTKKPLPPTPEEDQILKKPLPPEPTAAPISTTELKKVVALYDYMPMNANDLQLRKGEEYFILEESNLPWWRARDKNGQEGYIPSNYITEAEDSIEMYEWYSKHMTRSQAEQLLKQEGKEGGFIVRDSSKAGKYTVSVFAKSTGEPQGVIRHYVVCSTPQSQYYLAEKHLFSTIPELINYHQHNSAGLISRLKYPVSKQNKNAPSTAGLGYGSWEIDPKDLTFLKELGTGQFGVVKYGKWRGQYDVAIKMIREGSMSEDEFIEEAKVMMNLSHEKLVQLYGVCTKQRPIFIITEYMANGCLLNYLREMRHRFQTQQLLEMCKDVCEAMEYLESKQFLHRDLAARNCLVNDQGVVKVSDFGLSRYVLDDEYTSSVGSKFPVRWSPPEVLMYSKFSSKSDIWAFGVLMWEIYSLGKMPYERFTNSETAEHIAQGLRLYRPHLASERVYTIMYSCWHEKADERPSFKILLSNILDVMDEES
# Chain of CYP3A4 (P08684 whole entry): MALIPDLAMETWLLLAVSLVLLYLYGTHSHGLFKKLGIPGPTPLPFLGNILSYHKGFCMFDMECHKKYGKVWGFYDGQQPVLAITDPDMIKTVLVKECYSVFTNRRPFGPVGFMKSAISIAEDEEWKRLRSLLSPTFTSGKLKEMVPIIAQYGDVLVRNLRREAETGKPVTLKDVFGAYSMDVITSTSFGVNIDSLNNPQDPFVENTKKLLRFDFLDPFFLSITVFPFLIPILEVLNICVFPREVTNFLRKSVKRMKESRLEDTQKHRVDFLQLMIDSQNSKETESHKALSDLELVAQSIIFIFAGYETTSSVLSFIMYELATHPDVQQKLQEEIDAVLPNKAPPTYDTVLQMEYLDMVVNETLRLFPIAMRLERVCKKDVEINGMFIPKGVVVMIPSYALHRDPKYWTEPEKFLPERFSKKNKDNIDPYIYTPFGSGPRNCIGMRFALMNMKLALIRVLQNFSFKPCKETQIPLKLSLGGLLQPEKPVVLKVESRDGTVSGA
compound,measurement,setting,value
"CC#CC(=O)N1CCC[C@H]1c1nc(-c2ccc(C(=O)Nc3ccccn3)cc2)c2c(N)nccn12 [Formula (2), (S)-4-(8-amino-3-(1-(but-2-ynoyl)pyrrolidin-2-yl)imidazo[1,5-α]pyrazin-1-yl)-N-(pyridin-2-yl)benzamide]",metabolism by CYPs,CYP3A4,metabolized by CYP3A4
same,metabolites in hepatocytes,[1],two mono-oxidized metabolites and a glutathione conjugate
same,glutathione binding and depletion,[2],binds to glutathione but does not deplete glutathione
same,drug-drug interaction potential through CYP enzymes,CYP enzymes,very unlikely to cause clinical drug-drug interactions
same,BTK occupancy in granulocytic and monocytic MDSC compartments,BTK,Complete
same,inhibition of trastuzumab-stimulated NK cell cytokine release,NK cells [3],no inhibitory effect
same,inhibition of trastuzumab-stimulated NK cell degranulation,"NK cells [4]; 1 μM, trastuzumab-coated (10 μg/mL) HER18, 4 hours",no inhibitory effect
same,reduction of rituximab-stimulated NK cell degranulation,"NK cells [4]; rituximab-coated (10 μg/mL) DHL-4, 4 hours",< 2%
same,reduction of obinutuzumab-stimulated NK cell degranulation (CD56+/CD107a+ NK cells),NK cells [5],minimal effect
same,effect on Treg development,regulatory T cell (Treg),no adverse effect
same,effect on CD8+ T cell viability,CD8+ T cells [6],not observed; also recorded: no effect
same,CD8+ T cell function as measured by % cytotoxicity,CD8+ T cells [7]; 4 days CTL generation,no effect
same,CD8+ T cell function as measured by IFN-γ level,CD8+ T cells [7],no effect
same,% change in MDSC (monocytic) level over 28 days versus % ALC change,[8]; C1D28 and C2D28,increasing MDSC (monocytic) %
same,% change in NK cell level over 28 days versus % ALC change,[8]; C1D28 or C2D28,increasing NK cell %
same,CCL2 levels,CXCL12 and CCL2,significant decrease
same,CXCL12 levels,CXCL12 and CCL2,significant decrease
same,effect on human platelet-mediated thrombus formation,human platelets,does not interfere with thrombus formation; also recorded: no significant effect
same,activity in binding assays,[9],significant activity only against the A3 adenosine receptor
same,inhibition of in vitro EGFR phosphorylation,EGFR,no inhibition
